Measured values reported in patent publication US12486265B2, “2-aminopyrimidine compounds and pharmaceutical compositions and uses thereof” (Shanghai Zhimeng Biopharma, Inc., priority 2019, dated 2025).
Where two headings read alike, the source gives them in different places.

Key:
human TLR7 = molecular target: T1, human TLR7 (Homo sapiens, UniProt Q9NYK1); experiment: hTLR7 receptor binding activity in vitro (HEK-Blue hTLR7 SEAP reporter); assay type: cell-based; settings: HEK-Blue hTLR7 cells, 24 hours, SEAP OD650
T1 construct: host or cells: HEK-Blue hTLR7 (HEK293-derived)
T1 sequence (Q9NYK1 27-1049): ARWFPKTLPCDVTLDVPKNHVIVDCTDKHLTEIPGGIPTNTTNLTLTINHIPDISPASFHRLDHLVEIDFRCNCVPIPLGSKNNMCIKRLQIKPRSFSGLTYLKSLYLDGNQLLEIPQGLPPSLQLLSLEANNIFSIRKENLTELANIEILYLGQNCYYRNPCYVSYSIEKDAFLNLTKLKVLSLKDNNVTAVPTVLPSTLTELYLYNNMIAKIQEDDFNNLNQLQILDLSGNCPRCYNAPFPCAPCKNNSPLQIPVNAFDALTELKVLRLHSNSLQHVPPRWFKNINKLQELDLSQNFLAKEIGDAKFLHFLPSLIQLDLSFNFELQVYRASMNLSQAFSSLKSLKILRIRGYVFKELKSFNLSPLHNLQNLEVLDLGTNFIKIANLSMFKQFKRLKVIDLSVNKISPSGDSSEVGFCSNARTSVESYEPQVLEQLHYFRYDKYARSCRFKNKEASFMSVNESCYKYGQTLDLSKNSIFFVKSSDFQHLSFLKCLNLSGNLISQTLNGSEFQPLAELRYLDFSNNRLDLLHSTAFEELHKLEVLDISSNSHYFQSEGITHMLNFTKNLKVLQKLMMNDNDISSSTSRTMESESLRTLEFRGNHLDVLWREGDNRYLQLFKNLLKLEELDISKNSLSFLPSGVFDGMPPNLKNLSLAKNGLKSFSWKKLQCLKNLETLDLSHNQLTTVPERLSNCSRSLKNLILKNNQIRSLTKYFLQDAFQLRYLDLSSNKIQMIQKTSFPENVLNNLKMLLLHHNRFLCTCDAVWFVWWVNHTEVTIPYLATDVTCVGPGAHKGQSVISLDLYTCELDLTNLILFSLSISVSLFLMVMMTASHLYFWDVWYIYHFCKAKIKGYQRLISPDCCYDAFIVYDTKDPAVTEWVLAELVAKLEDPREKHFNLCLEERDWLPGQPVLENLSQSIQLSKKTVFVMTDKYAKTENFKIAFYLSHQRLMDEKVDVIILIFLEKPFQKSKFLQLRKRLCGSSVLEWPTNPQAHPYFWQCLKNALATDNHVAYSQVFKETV
Protocol: (§1) The ability of the compounds of the present invention to activate TLR7 and TLR8 respectively was evaluated by using receptor binding experiments in vitro.
(§2) HEK-Blue™ hTLR7 (article number: hkb-htlr7) and HEK-Blue™ hTLR8 (article number: hkb-htlr8) cells were purchased from InvivoGen company. HEK-Blue™ hTLR7/8 cells can indicate the activation of TLR7/8 by detecting the activation level of NF-κB signaling pathway. HEK-Blue™ hTLR7/8 cells are derived from human embryonic kidney 293 cells, stably expressing human TLR7 or human TLR8, respectively, and can induce expression of secretory alkaline phosphatase (SEAP) to report gene system. The expression of SEAP reporter gene is regulated by IFN-β simplified promoter, which is composed of 5 NF-κB binding sequences and AP-1 binding sequences. Therefore, when TLR7/8 is activated in these two cells, NF-κB and AP-1 will be activated, and SEAP expression and extracellular secretion will be induced. By detecting the activity of SEAP outside the cell, the activation level of TLR7/8 can be indicated.
(§3) • (1) The compound was added to the cell culture plate after a 3-fold gradient dilution, with a total of 10 concentrations, with two duplicates wells for each concentration.
(§4) [drawing 45] per well; • (2) HEK-Blue™ hTLR7/8 cells were digested separately, counted, and the cells at 5.0×10^4 cells per well were added to a 96-well cell culture plate containing compounds; (3) The cells added with the compound were placed in a 5% CO2 incubator at 37° C. for 24 hours; • (4) Compound activity detection: took 20 µl/well cell culture supernatant and added it to 96-well plate containing 180 μl QUANTI-BLUE™ reagent. Incubated at 37° C. for one hour, and the optical density absorption value (OD650) at 650 nm was detected with a multifunctional microplate reader; • (5) Cell activity detection: operated according to the Celltiter-Glo instructions, and the chemiluminescence signal (RLU) was detected by a multifunctional microplate reader Envision; • (6) Data analysis: • Compound activity: OD650 value was analyzed by GraphPad Prism software, and the dose effect curve of the compound was fitted to calculate the EC50 value of the compound.

[1] = Cell activity detection (Celltiter-Glo) in HEK-Blue hTLR8 cells; assay type: cell-based; settings: human
Protocol: as §4
(§5) Cell activity detection: cell activity was analyzed by GraphPad Prism software, and the dose effect curve of the compound was fitted to calculate the CC50 value of the compound to the cell.

human TLR8 = molecular target: T2, human TLR8 (Homo sapiens, UniProt Q9NR97); experiment: hTLR8 receptor binding activity in vitro (HEK-Blue hTLR8 SEAP reporter); assay type: cell-based; settings: for EC50: HEK-Blue hTLR8 cells, 24 hours, SEAP OD650; for selectivity for TLR8 activation: TLR8 versus TLR7, compared with compound X
T2 construct: host or cells: HEK-Blue hTLR8 (HEK293-derived)
T2 sequence (Q9NR97 27-1041): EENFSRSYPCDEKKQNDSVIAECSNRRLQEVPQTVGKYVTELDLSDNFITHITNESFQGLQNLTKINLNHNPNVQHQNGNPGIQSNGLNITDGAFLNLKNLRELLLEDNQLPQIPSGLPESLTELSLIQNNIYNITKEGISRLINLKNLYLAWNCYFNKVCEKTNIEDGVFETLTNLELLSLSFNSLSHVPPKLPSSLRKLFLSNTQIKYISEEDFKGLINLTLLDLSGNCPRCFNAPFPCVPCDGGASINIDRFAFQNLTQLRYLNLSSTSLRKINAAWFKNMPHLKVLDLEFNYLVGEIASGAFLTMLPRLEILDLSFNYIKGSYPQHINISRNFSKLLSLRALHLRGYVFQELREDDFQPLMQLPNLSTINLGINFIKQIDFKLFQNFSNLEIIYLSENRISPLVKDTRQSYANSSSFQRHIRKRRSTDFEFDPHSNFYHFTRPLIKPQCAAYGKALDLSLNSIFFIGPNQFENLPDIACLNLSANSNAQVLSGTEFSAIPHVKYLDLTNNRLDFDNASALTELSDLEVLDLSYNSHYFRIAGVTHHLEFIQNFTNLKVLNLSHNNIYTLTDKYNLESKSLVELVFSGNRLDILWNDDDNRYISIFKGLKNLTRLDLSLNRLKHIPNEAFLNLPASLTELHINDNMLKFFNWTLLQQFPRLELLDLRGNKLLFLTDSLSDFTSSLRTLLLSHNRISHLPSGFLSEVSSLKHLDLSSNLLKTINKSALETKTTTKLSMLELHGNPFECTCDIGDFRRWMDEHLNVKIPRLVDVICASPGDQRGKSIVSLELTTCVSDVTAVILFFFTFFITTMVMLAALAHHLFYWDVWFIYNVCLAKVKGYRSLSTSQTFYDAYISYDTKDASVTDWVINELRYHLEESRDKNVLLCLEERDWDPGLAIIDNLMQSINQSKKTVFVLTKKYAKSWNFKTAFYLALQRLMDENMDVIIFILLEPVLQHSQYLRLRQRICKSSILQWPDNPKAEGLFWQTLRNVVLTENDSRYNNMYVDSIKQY
Protocol: as §1, §2, §3, §4

[2] = Liver-blood ratio study in male SD rats; assay type: in vivo; settings: rat, liver / plasma, single oral administration; for Kp at 1 h: time point 1 h; for Kp at 4 h: time point 4 h
Protocol: Liver-blood ratio study: 4 healthy male SD rats (SPF grade) were divided into 2 groups and 2 rats/group. After fasting overnight, compound A and compound X were administrated orally respectively. Blood was taken through cardiac puncture at time points 1 and 4 hours, at least 0.5 mL of whole blood was collected to EDTA-K2 anticoagulant tube, and plasma was taken after centrifugation (6000 rpm, 8 minutes, 4° C.) within half an hour and frozen at −20° C. for later use. At the same time, liver tissue was collected, rinsed with normal saline, then blotted dry with absorbent paper, weighed, and frozen at −20° C. for later use.

IL-12p40 in human PBMC = experiment: IL-12p40 induction in human PBMC (ELISA); assay type: cell-based
Source text: The human peripheral blood mononuclear cell (PBMC) experiment and the IL-12p40 ELISA detection method are used to detect the IL-12p40 inducing activity of the compound of the present invention in human PBMC.
Toll-like receptors (TLRs) are a series of switches that regulate the human immune system and occupy an important position in both innate (non-specific) and specific immunity. TLR8 is mainly expressed in monocytes, macrophages and myeloid dendritic cells. TLR8 is expressed on the Endosome intima of the cell and recognizes single-stranded RNA with high GU (guanylate/uridonic acid) content. After TLR8 signaling pathway is activated, it will activate the secretion of a series of downstream cytokines (IL-12, TNF-alpha, IFN-gamma, etc.), causing antiviral immune response. In this experiment, the compound was used to stimulate human PBMC, and the level of IL-12p40 protein in the culture supernatant was detected to evaluate the activation level of the compound on the TLR8 signaling pathway.
• (1) The compound was added to the cell plate after a 3-fold gradient dilution, with a total of 8 concentrations, and two duplicate wells for each concentration.
(§6) Resuspended, cell number was counted, and the cell suspension was adjusted to 2.5×10^6 cells/ml with the culture medium.

[3] = Pharmacokinetic study in male SD rats; assay type: in vivo; settings: rat, plasma
Protocol: Pharmacokinetic study: 6 healthy male SD rats (SPF grade) were divided into 2 groups and 3 rats/group. […] Within half an hour, plasma was taken after centrifugation (6000 rpm, 8 minutes, 4° C.) and frozen at −20° C. for later use. Experimental results: According to the obtained blood drug concentration data, the non-compartmental model of WinNonlin® 8.1 software (Certara, USA) was used to calculate the pharmacokinetic parameters after administration.

[4] = Cell activity detection (Celltiter-Glo) in human PBMC; assay type: cell-based
Protocol: as §6, §5

[5] = 24 hours, Celltiter-Glo, read-out: CC50
[6] = read-out: cytotoxic CC50 on human PBMC
[7] = human PBMC, 24 hours, ELISA OD450, read-out: IL-12p40 EC50

Row | Structure (SMILES) | EC50 (human TLR7) | CC50 at 24 h [1] | EC50 (human TLR8) | Kp at 1 h [2] | Kp at 4 h [2] | CC50 at 24 h [4, 5] | CC50 at 24 h [4, 6] | selectivity for TLR8 activation (human TLR8) | EC50 (IL-12p40 in human PBMC; [7]) | also measured
1 | CCCC[C@](C)(CNC(C)=O)Nc1nc(N)nc2cc(CC)cnc12 [Compound X, reference compound] | 11.9 µM | > 33 µM | 0.04 µM | 6.9 | 23.6 | – | – | – | – | –
2 | CCCC[C@](C)(CNC(C)=O)Nc1nc(N)nc2cc(C(=O)N(C)C)cnc12 [Compound A] | > 33 µM | > 33 µM | – | 12.3 | 34.4 | > 33 µM | > 10 µM | – | – | EC50 (IL-12p40 in human PBMC; Homo sapiens, PBMC, 24 h, read-out: IL-12p40 EC50): 0.031 µM; EC50 (IL-12p40 in human PBMC; Homo sapiens, PBMC, read-out: induced activity EC50 on IL-12p40): 0.031 µM; AUC(0-inf) ([3]; IV 5 mg/kg): 877 ng·h/mL; AUC(0-t) ([3]; IV 5 mg/kg): 876 ng·h/mL; Cmax ([3]; IV 5 mg/kg): 1830 ng/mL; MRT last ([3]; IV 5 mg/kg): 22.8 min; Tmax ([3]; IV 5 mg/kg): 4.98 min; clearance ([3]; IV 5 mg/kg): 95 mL/min/kg; half-life ([3]; IV 5 mg/kg): 40.8 min; Vd ([3]; IV 5 mg/kg, read-out: Vz): 5.59 L/kg; AUC(0-inf) ([3]; PO 50 mg/kg): 1260 ng·h/mL; AUC(0-t) ([3]; PO 50 mg/kg): 1250 ng·h/mL; Cmax ([3]; PO 50 mg/kg): 1170 ng/mL; MRT last ([3]; PO 50 mg/kg): 116 min; Tmax ([3]; PO 50 mg/kg): 25.2 min; bioavailability ([3]; PO 50 mg/kg): 14.2%; half-life ([3]; PO 50 mg/kg): 345 min
3 | CCCC[C@](C)(CNC(C)=O)Nc1nc(N)nc2cc(C(C)=O)cnc12 [Compound V] | > 33 µM | > 33 µM | 0.049 µM | – | – | – | – | higher selectivity for TLR8 activation than compound X | – | –
4 | CCOCc1nc2c(N)nc3ccccc3c2n1CC(C)(C)O [Compound R848, reference compound] | – | > 71 µM | – | – | – | > 71 µM | – | – | 0.208 µM | –
5 | CCCC[C@](C)(CNC(C)=O)Nc1nc(N)nc2cc(C(=O)N3CC4(CCN(c5ccccc5)CC4)C3)cnc12 [Compound T] | > 33 µM | > 33 µM | 0.207 µM | – | – | – | – | – | – | –
6 | CCCC[C@](C)(CNC(C)=O)Nc1nc(N)nc2cc(NC3CC3)cnc12 [Compound B] | 28.4 µM | > 33 µM | 0.029 µM | – | – | 28.9 µM | > 10 µM | higher selectivity for TLR8 activation than compound X | 0.02 µM | EC50 (IL-12p40 in human PBMC; human PBMC, read-out: induced activity EC50 on IL-12p40): 0.02 µM
